{
  "source": "paper PMC9728092",
  "about": "(RSC Advances, 2022)",
  "data": [
    {"molecular_target": "AChE (Homo sapiens, UniProt P22303)", "sequence (P22303 32-614)": "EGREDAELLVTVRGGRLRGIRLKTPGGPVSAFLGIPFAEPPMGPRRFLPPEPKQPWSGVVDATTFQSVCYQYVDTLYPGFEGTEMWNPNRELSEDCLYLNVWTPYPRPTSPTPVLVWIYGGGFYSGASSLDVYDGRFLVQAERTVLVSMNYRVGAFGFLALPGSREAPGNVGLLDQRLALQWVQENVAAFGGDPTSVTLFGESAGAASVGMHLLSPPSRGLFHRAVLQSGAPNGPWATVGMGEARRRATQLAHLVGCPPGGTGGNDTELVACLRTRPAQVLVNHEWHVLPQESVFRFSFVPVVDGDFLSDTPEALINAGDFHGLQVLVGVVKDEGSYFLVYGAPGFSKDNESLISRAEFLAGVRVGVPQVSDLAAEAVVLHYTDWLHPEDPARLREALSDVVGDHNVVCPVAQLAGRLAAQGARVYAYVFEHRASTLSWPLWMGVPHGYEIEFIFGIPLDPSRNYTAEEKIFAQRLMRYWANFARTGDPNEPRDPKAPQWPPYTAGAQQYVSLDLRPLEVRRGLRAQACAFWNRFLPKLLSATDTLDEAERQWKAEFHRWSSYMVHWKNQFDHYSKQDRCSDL", "test": "AChE inhibitory assay in vitro", "format": "biochemical", "units": {"IC50": "µM"}, "values": [
      {"compound": "O=c1c(O)c(-c2ccc(O)cc2)oc2cc(O)cc(O)c12", "note": "[Compound 8, kaempferol]", "IC50": "17.9 ± 0.18"},
      {"compound": "O=c1c(O)c(-c2ccc(O)c(O)c2)oc2cc(O)cc(O)c12", "note": "[Compound 9, quercetin]", "IC50": "3.96 ± 0.27"},
      {"compound": "O=C1c2c(O)cc(O)cc2O[C@H](c2ccc(O)cc2)[C@H]1O", "note": "[Compound 10, dihydrokaempferol]", "IC50": "> 50"}
    ]}
  ]
}
